Test results published in patent publication US11401255B2, “Small molecule activators of Parkin enzyme function” (Mayo Foundation for Medical Education and Research, priority 2016, dated 2022).
Several values for one entry are separate records, joined by “and”; a condition that tells them apart may be missing. Identical values can stand only once. Entries after “also recorded” stand apart in the source; their conditions may differ. Like-named read-outs stand apart in the source and are kept apart here.

Experiments:
[1] = molecular target: Parkin (Homo sapiens (Human), UniProt O60260); assay: Parkin activation in human primary fibroblasts (western blot); format: cell-based; settings: for MFN1/2 degradation and pSer65-Ub levels: 5 μM before low dose CCCP (3.5 μM); for MFN1 ubiquitylation or pSer65-Ub signals, compound treatment alone: different concentrations, 2 h, absence of CCCP
Sequence of Parkin (O60260 whole entry): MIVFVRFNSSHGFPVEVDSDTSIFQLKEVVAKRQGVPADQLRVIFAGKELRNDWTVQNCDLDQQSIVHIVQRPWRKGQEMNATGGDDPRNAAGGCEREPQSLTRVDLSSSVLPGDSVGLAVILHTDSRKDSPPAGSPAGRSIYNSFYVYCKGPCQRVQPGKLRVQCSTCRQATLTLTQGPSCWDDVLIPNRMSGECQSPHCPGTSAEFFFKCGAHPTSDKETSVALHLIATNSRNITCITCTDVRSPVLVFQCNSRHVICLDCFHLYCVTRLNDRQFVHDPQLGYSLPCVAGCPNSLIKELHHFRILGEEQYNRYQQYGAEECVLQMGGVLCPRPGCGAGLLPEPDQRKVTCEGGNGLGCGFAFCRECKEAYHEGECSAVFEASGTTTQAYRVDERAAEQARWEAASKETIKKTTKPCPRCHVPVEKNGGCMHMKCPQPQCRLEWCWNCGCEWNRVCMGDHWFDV
Experimental: FIGS. 15A-15H show Parkin activation in primary fibroblasts, neuronal cells and in vitro. Positive control (PC) cells were treated with DMSO and 10 μM of CCCP. Negative control (NC) cells were treated with 3.5 μM CCCP, some cells were left untreated (−). […] Vinculin was used as loading control. […] FIG. 15C: Human fibroblasts were directly converted to neurons and treated as in FIG. 15B. […] Beta III tubulin confirmed successful conversion of fibroblasts to iNeurons. FIG. 15D: Rat PC12 cells were treated as in FIG. 15A. Western blots show enhanced ubiquitylation of MFN2 and TOM70, and robust pSer65-Ub induction similar to PC, but not NC cells. FIG. 15E: In vitro E2 discharge assay. Recombinant Parkin was pre-incubated with compound 4 or DMSO as control and was mixed to Ub-loaded UbcH7. […] Control reactions were performed without PINK1 or Parkin. FIG. 15F: In vitro assay with isolated mitochondria from untreated or CCCP-treated HeLa cells lacking Parkin. Mitochondrial preparations were mixed with recombinant Parkin, E1, UbcH7, ATP and either compound 4 or DMSO as a control and incubated for the indicated times. […] Control samples were incubated in reaction mix without Parkin. FIG. 15G: Protein melting was performed with 50 ng purified Parkin mixed with SYPRO orange and DMSO as control or 500 nM compound 4. […] FIG. 15H: Statistical analysis of three independent experiments as performed in FIG. 15G. Shown in the average value+/−SD (unpaired, two-sided t-test; *** p<0.0005).
FIG. 16A: Quantification of pSer65-Ub signal using sandwich ELISA from six independent experiments performed in human fibroblast treated as described in FIG. 15A. Shown in the average−/+SD. One-way ANOVA with Tukey's posthoc test (*** p<0.0005). FIG. 16B: Human primary fibroblasts were treated with different concentrations of all five compounds (1, 2, 3, 4, and 31) for 2 h. […] Different CCCP concentrations were used as positive control. FIG. 16C: Rat PC12 cells were pretreated with 5 μM of the compounds for 2 h and then treated with low dose of CCCP (3.5 μM). Control cells were treated with DMSO and either 10 μM CCCP (PC) or 3.5 μM (NC). Some cells received no CCCP (−). […] The PINK1/Parkin product pSer65-Ub was induced by all five compounds upon low dose treatment and in positive controls. FIG. 16D: PC12 cells were differentiated by treatment with NGF (NGF+). Some cells were left undifferentiated (NGF−). Cells were treated with 5 μM of compounds or DMSO as indicated. 2 h later, low dose CCCP (3.5 μM) was added to cells treated with test compounds. DMSO controls were either treated with 3.5 μM CCCP (NC) or 10 μM CCCP (PC). Some cells were not treated with CCCP (−). Western blots probed with antibodies against MFN1 show degradation in cells treated with compounds and in the positive control. Some degradation can also be observed in the negative control. […] Beta III tubulin was used to confirm successful differentiation. Vinculin was used as loading control.
Primary fibroblasts (Cell Applications) were cultured in fibroblast growth medium (FGM): DMEM containing 10% FBS, 1% penicillin-streptomycin and 1% non-essential amino acids. Direct conversion to neurons was performed utilizing short hairpin RNA targeting polypyrimidine-tract-binding protein (shPTB), which affects proneuronal micro-RNA circuits (Xue et al., Cell (2013) 152:82-96. Cells were seeded with 40,000 cells/mL and allowed to adhere overnight. 48 h after transduction with pLKO. 1_shPTB lentivirus, positive cells were selected with 2 μg/mL puromycin in fibroblast growth medium. On day 6 media was changed to FGM containing 10 ng/mL fibroblast growth factor (FGF, Genscript). On day 8, media was changed to differentiation media (DMEM:F12 (Invitrogen), 25 μg/mL insulin, 50 μg/mL transferrin, 0.1 μM putrescine 0.03 μM Na-selenite (all Sigma-Aldrich), and 15 ng/mL FGF) containing 5% FBS. On days 10 and 12 media was replaced with differentiation media containing reduced serum (2% FBS). […]

[2] = molecular target: CYP 2C9 (Homo sapiens (Human), UniProt P11712); assay: P450-Glo CYP450 inhibition, CYP 2C9; format: in vitro ADME; settings: CYP 2C9, 10 μM; for inhibition at 10 µM: human, P450-Glo Assay System (Promega), CYP 2C9 membranes
Sequence of CYP 2C9 (P11712 whole entry): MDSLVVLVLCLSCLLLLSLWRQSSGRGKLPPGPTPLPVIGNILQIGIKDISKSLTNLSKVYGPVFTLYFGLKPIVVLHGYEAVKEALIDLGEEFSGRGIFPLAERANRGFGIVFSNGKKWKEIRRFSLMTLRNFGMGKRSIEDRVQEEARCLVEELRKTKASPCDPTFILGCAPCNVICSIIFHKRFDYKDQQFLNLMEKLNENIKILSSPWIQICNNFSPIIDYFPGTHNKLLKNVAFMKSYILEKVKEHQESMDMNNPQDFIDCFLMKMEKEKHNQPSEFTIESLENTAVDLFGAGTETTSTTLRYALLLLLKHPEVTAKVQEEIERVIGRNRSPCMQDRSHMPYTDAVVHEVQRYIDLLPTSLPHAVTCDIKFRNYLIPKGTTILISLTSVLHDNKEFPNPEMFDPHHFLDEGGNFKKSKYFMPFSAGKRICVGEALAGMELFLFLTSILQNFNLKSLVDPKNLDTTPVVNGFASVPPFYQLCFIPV
Experimental: CYP450 inhibition profiling provides valuable information regarding any possible drug-drug interactions for a test compound.
All experiments were performed using P450-Glo™ Assay Systems (Promega) in accordance with the manufacturer's protocols. The P450-Glo™ Assays provide a luminescent readout-based method for measuring cytochrome P450 activity. A conventional cytochrome P450 reaction was performed by incubating the cytochrome P450 and a luminogenic cytochrome P450 substrate. The substrates in the P450-Glo™ assays are derivatives of beetle luciferin. The derivatives themselves are not substrates for luciferase but are converted by cytochrome P450s to luciferin, which in turn reacts with luciferase to produce light. The amount of light produced was directly proportional to cytochrome P450 activity. All test points were performed in quadruplicates. Control membranes (without CYPs) represented the Negative control (baseline).
The following reference compounds were used to assess CYP inhibition: […]

[3] = test system: HeLa EGFP-Parkin cells; assay: Co-recruitment of autophagy receptors to mitochondria (immunofluorescence); format: cell-based, human
Experimental: Cells were grown on poly-D-lysine coated glass coverslips. After treatments, cells were fixed in 4% paraformaldehyde and permeabilized using 1% Triton X-100, for each 10 min. Cells were blocked in 10% goat serum. Primary and secondary antibodies were diluted in 1% BSA/PBS and each incubated for 1 h at RT. Primary antibodies used: DNA (mouse, 1:250, Progen, AC-30-10), NBR1 (mouse, 1:100, Abnova H00004077-M01), NDP52 (rabbit, 1:400, Proteintech, 12229-1-AP), OPTN (mouse, 1:200, Santa Cruz, sc-166576), p62 (mouse, 1:400, BD Biosciences, 610832), pSer65-Ub (rabbit, 1:500, in-house (Fiesel et al., EMBO Reports (2015) 16:1114-30; Fiesel et al., (2015) Autophagy 11:2125-2126)), TAX1BP1 (rabbit, 1:200, Cell Signaling, #5105), TOM20 (mouse, 1:100, Santa Cruz, sc-17764), TOM20 (rabbit, 1:2000, Proteintech, 11802-1-AP). Secondary antibodies conjugated to AlexaFluor-568 or-647 (Invitrogen) were diluted 1:1000. Hoechst 33342 (Invitrogen) was diluted 1:5000 to counterstain the nuclei.
To validate the activation of Parkin further downstream in the pathway, co-recruitment of endogenous autophagy receptors to mitochondria in HeLa EGFP-Parkin cells was analyzed. These dual adaptors recognize pSer65-Ub chains on damaged mitochondria and facilitate their engulfment by autophagosomal membrane via their interaction with LC3 proteins (Lazarou et al., Nature (2015) 524:309-14; Heo et al., Mol. Cell (2015) 60:7-20).

[4] = read-out: Inhibition, % (individual replicates)

Row | SMILES | MFN1/2 degradation and pSer65-Ub levels [1] | MFN1 ubiquitylation or pSer65-Ub signals, compound treatment alone [1] | Inhibition, % (individual replicates) [2] | inhibition at 10 µM [2, 4] [%] | inhibition at 10 µM ([2]; read-out: Inhibition, % Mean) [%] | co-localization of OPTN, NBR1, NDP52, p62 and TAX1BP1 with Parkin on damaged mitochondria [3] | mitofusin ubiquitylation/degradation and pSer65-Ub signal ([1]; 5 μM for 2 h before different concentrations of CCCP)
1 | CC(C)c1nccn1CC(=O)Nc1ccc(-c2ccccc2)cc1 [Compound 2] | enhanced degradation of the substrates MFN1/2 and increase of pSer65-Ub levels | did not induce MFN1 ubiquitylation or pSer65-Ub signals | 30.3% and 25.4% and 21.4% | 36.6 | 28.4 | increased co-localization | –
2 | Cc1nc2c(c(N3CCCN(Cc4ccccc4)CC3)n1)CCCC2 [Compound 31] | enhanced degradation of the substrates MFN1/2 and increase of pSer65-Ub levels | did not induce MFN1 ubiquitylation or pSer65-Ub signals | 50.4% and −18.3% and 11.9% and 13.7% | – | 14.5 | increased co-localization | –
3 | CC(C)(C)Sc1ccc(NC(=O)Cn2ccnc2)cc1 [Compound 3] | enhanced degradation of the substrates MFN1/2 and increase of pSer65-Ub levels | did not induce MFN1 ubiquitylation or pSer65-Ub signals | 98.8% and 98.0% and 97.4% | 96.2 | 97.6 | increased co-localization | –
4 | O=C(Cn1ccnc1-c1ccccn1)Nc1ccc(-c2ccccc2)cc1 [Compound 4] | enhanced degradation of the substrates MFN1/2 and increase of pSer65-Ub levels; also recorded: strongest effects | did not induce MFN1 ubiquitylation or pSer65-Ub signals | 27.3% and 11.9% and 4.6% and −11.1% | – | 8.2 | increased co-localization | increased ubiquitylation/degradation of mitofusins and amplification of the pSer65-Ub signal
5 | O=C(Cn1cnc2c1CCCC2)Nc1ccc(-c2ccccc2)cc1 [Compound 1] | enhanced degradation of the substrates MFN1/2 and increase of pSer65-Ub levels; also recorded: strongest effects | did not induce MFN1 ubiquitylation or pSer65-Ub signals | 40.6% and 11.1% and 15.7% and 28.5% | – | 24 | increased co-localization | –
